The source of these data is PubChem BioAssay (NCI).

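Five compound concentrations were applied to cells in 96-well plates for 48 hours; endpoints were derived by simple linear interpolation of the resulting dose-response curve. TGI: concentration producing complete growth inhibition.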 Bounds are passed on as bounds.

Test systems include NCI-H23 lung; SR leukemia; HCT-15 colon; SNB-19 CNS; SK-MEL-2 melanoma; SN12C renal; NCI-H460 lung; UACC-62 melanoma; U251 CNS; ACHN renal; HT29 colon; K-562 leukemia; NCI-H522 lung; HOP-92 NSCLC; RXF 393 renal.
Common to all, as to assay: inhibition of tumour cell growth, NCI panel, 48 h

For `CC1=CCC2(C#N)CCC1C2=O` (stereo unspecified), the TGI in the assay with NCI-H23 lung, in the assay on SR leukemia, in the assay on HCT-15 colon, with SNB-19 CNS, in the assay with SK-MEL-2 melanoma and in the assay on SN12C renal was > 100 µM in each case. Further, the TGI with NCI-H460 lung, in the assay with UACC-62 melanoma, in the assay with U251 CNS, in the assay on ACHN renal, in the assay on HT29 colon and in the assay with K-562 leukemia was > 100 µM throughout. The TGI with NCI-H522 lung was > 100 µM.

In the case of `CC(C)NC(C)Cc1ccccc1` (stereo unspecified), the TGI in the assay on NCI-H23 lung, with HOP-92 NSCLC, in the assay on SR leukemia, in the assay with HCT-15 colon, in the assay on SNB-19 CNS and in the assay with SK-MEL-2 melanoma was > 100 µM in each case. The TGI in the assay on SN12C renal, in the assay with NCI-H460 lung, with RXF 393 renal, in the assay with UACC-62 melanoma, in the assay on U251 CNS and with ACHN renal was > 100 µM throughout. For the same compound, the TGI in the assay with HT29 colon, with K-562 leukemia and in the assay with NCI-H522 lung was > 100 µM throughout.

In the case of `C(/COc1cccnc1)=N\NC1=NCCN1`, the TGI with NCI-H23 lung, with HOP-92 NSCLC, in the assay with SR leukemia, in the assay with HCT-15 colon, with SNB-19 CNS and in the assay with SK-MEL-2 melanoma was > 100 µM in each case. The TGI in the assay with SN12C renal, in the assay on NCI-H460 lung, in the assay on RXF 393 renal, with UACC-62 melanoma, in the assay with U251 CNS and with ACHN renal was > 100 µM throughout. Moreover, the TGI in the assay with HT29 colon, in the assay with K-562 leukemia and in the assay on NCI-H522 lung was > 100 µM each time.

Turning to `CN/N=C(\C)CC(=O)Nc1cccc(Cl)c1C`, the TGI in the assay on NCI-H23 lung is > 100 µM; in the assay with HOP-92 NSCLC, > 100 µM; with SR leukemia, 53.5 µM; in the assay with HCT-15 colon, > 100 µM; in the assay with SNB-19 CNS, > 100 µM; in the assay with SK-MEL-2 melanoma, > 100 µM. Further, the TGI in the assay with SN12C renal, with NCI-H460 lung, in the assay on RXF 393 renal, with UACC-62 melanoma, with U251 CNS and in the assay with ACHN renal was > 100 µM in each case. Moreover, the TGI with HT29 colon, in the assay on K-562 leukemia and in the assay on NCI-H522 lung was > 100 µM each time.

On to `COC(=O)C(C(=O)C(=O)Nc1ccccc1OC)c1csc(-n2nc(-c3ccccc3)cc2-c2ccccc2)n1` (stereo unspecified), for which the TGI in the assay with NCI-H23 lung, in the assay on HOP-92 NSCLC, in the assay with SR leukemia, in the assay on HCT-15 colon, in the assay with SNB-19 CNS and in the assay on SN12C renal was > 100 µM throughout. Further, the TGI in the assay with NCI-H460 lung, with RXF 393 renal, in the assay with UACC-62 melanoma, in the assay on U251 CNS, in the assay with ACHN renal and in the assay on HT29 colon was > 100 µM each time. Besides, the TGI in the assay with K-562 leukemia and in the assay on NCI-H522 lung was > 100 µM each time.

For `CC(C)(C)C1CCC2c3c([nH]c4ccccc34)C3C(=O)N(c4ccc(Br)cc4)C(=O)C3C2C1` (stereo unspecified), the TGI worked out at 38.1 µM with NCI-H23 lung; 49 µM with HOP-92 NSCLC; 36.3 µM in the assay on HCT-15 colon; 40 µM in the assay on SNB-19 CNS; 54.6 µM in the assay on SK-MEL-2 melanoma; 27.6 µM in the assay on SN12C renal. The TGI is 38.9 µM with NCI-H460 lung; > 100 µM with UACC-62 melanoma; 35.7 µM with ACHN renal; 44.3 µM in the assay with HT29 colon; 43.5 µM in the assay with K-562 leukemia.

On to `CCN(CC)CC(C)(C)C(=O)/C=C/c1ccc(C)cc1`, for which the TGI with HOP-92 NSCLC was found to be 8.45 µM; in the assay on SR leukemia it was 26.8 µM; with HCT-15 colon, 14.8 µM; with SNB-19 CNS, 25 µM; with SK-MEL-2 melanoma it was 25.7 µM; in the assay on SN12C renal, 19.8 µM. Also, the TGI was 19.4 µM with NCI-H460 lung; 21.6 µM in the assay on RXF 393 renal; 31.8 µM with UACC-62 melanoma; 28.6 µM with U251 CNS; 27.9 µM in the assay with ACHN renal; 12.3 µM with HT29 colon. Also, the TGI with K-562 leukemia is > 100 µM; in the assay with NCI-H522 lung it was 8.93 µM.

As to `CCC12C=CCN3CC[C@]4(C(=C(C(=O)OC)[C@@H]1Nc1ccn(C5OC(COC(C)=O)C(OC(C)=O)C5OC(C)=O)c(=O)n1)Nc1ccccc14)C32` (stereo partly specified), the TGI is 3.43 µM in the assay on NCI-H23 lung; 8.02 µM in the assay with HOP-92 NSCLC; 10.2 µM with SR leukemia; 6.83 µM in the assay with HCT-15 colon; 9.27 µM in the assay with SNB-19 CNS; 5.58 µM in the assay on SK-MEL-2 melanoma. Also, the TGI with SN12C renal worked out at 8.24 µM; in the assay with NCI-H460 lung, 8.62 µM; in the assay on RXF 393 renal it was 6.45 µM; in the assay on UACC-62 melanoma it was 6.94 µM; with U251 CNS, 7.69 µM; with ACHN renal, 8 µM. Further, the TGI in the assay on HT29 colon turned out to be 8.4 µM; in the assay with K-562 leukemia it was 17.1 µM; with NCI-H522 lung, 7.17 µM.

As to `C/C=C/C=C/[C@H]1Cc2cc(O)cc(O)c2O1`, the TGI in the assay with NCI-H23 lung, in the assay with HOP-92 NSCLC, with SR leukemia, with HCT-15 colon, in the assay with SNB-19 CNS and with SK-MEL-2 melanoma was > 100 µM in each case. Further, the TGI in the assay with SN12C renal, with NCI-H460 lung, in the assay with RXF 393 renal, in the assay with UACC-62 melanoma, in the assay on U251 CNS and with ACHN renal was > 100 µM in each case. Also, the TGI with HT29 colon, in the assay with K-562 leukemia and in the assay with NCI-H522 lung was > 100 µM in each case.

For the compound `CC1=NN(C(=O)c2ccc(Cl)cc2)C(=O)/C1=C/c1cccc(O)c1`, the TGI in the assay with NCI-H23 lung, in the assay on HOP-92 NSCLC, in the assay on HCT-15 colon, with SNB-19 CNS, in the assay with SK-MEL-2 melanoma and in the assay with SN12C renal was > 100 µM throughout. For the same compound, the TGI in the assay on NCI-H460 lung, in the assay on RXF 393 renal, with UACC-62 melanoma, in the assay on U251 CNS, in the assay on ACHN renal and in the assay with HT29 colon was > 100 µM each time. Also, the TGI in the assay on K-562 leukemia and in the assay on NCI-H522 lung was > 100 µM throughout.
